In PubChem BioAssay (NCI):
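Method: 48-hour compound exposure of cells in 96-well plates, five concentrations, linear interpolation of endpoints. GI50: concentration for 50% inhibition of growth. TGI denotes the concentration required for complete inhibition of growth.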

Assays:
Assay in all cases: DTP human tumour cell line panel, 48 h
SN12C renal = test system: SN12C renal
SK-MEL-5 melanoma = test system: SK-MEL-5 melanoma
HCT-15 colon = test system: HCT-15 colon
SNB-75 CNS = test system: SNB-75 CNS
MDA-N = test system: MDA-N
HCC-2998 colon = test system: HCC-2998 colon
786-0 renal = test system: 786-0 renal
NCI-H23 lung = test system: NCI-H23 lung
A498 renal = test system: A498 renal
MDA-MB-231 breast = test system: MDA-MB-231 breast
HOP-92 NSCLC = test system: HOP-92 NSCLC

SMILES	TGI (SN12C renal) [µM]	TGI (SK-MEL-5 melanoma) [µM]	TGI (HCT-15 colon) [µM]	TGI (SNB-75 CNS) [µM]	TGI (MDA-N) [µM]	TGI (HCC-2998 colon) [µM]	TGI (786-0 renal) [µM]	TGI (NCI-H23 lung) [µM]	TGI (A498 renal) [µM]	GI50 (SN12C renal) [µM]	GI50 (SK-MEL-5 melanoma) [µM]	GI50 (HCT-15 colon) [µM]	GI50 (SNB-75 CNS) [µM]	GI50 (A498 renal) [µM]	GI50 (MDA-MB-231 breast) [µM]	TGI (MDA-MB-231 breast) [µM]	GI50 (HOP-92 NSCLC) [µM]	TGI (HOP-92 NSCLC) [µM]	GI50 (HCC-2998 colon) [µM]	GI50 (NCI-H23 lung) [µM]
CCOC(=O)C(NC(=O)CC)(Nc1cc(C)on1)C(F)(F)F (configuration not stated)	> 100	> 100	> 100	> 100	> 100	> 100	> 100	> 100	–	–	–	–	–	–	–	–	–	–	–	–
CC1(c2ccc[n+](Cc3ccccc3)c2)OCCO1	> 100	> 100	> 100	> 100	–	> 100	> 100	> 100	> 100	–	–	–	–	–	–	–	–	–	–	–
C[C@@H]1CC[C@H]2C(C(O)CCCCC(O)C3=C(C(F)(F)F)O[C@@H]4O[C@@]5(C)CC[C@H]6[C@H](C)CC[C@@H]3[C@@]46OO5)=C(C(F)(F)F)O[C@@H]3O[C@@]4(C)CC[C@@H]1[C@]32OO4 (some centres not stated)	> 100	> 100	> 100	> 100	–	–	–	–	> 100	21	24.7	9.79	42.4	45.6	16.2	> 100	11.2	> 100	–	–
COc1ccc2c(c1)c(CC(=O)O)c(C)n2C(=O)c1ccc(Cl)cc1	> 100	> 100	> 100	> 100	> 100	> 100	> 100	> 100	–	–	–	–	–	–	–	> 100	–	> 100	–	–
Cc1c(NC(=O)CSC(=S)N2CCN(Cc3ccccc3)CC2)c(=O)n(-c2ccccc2)n1C	> 100	> 100	> 100	–	> 100	> 100	> 100	> 100	–	–	–	–	–	–	–	> 100	–	–	–	–
CCN(C(=S)N[C@H](C(=O)N[C@@H](C)C(=O)OC)C(C)C)c1ccccc1	> 100	> 100	> 100	–	> 100	> 100	> 100	> 100	–	–	–	–	–	–	–	> 100	–	> 100	–	–
Cc1ccc2c(c1C)C(=O)/C(=C/c1ccccc1C(=O)O)C2	> 100	> 100	> 100	> 100	> 100	> 100	> 100	> 100	> 100	–	–	–	–	–	–	–	–	> 100	–	–
Cc1nc2c(sc(=S)n2-c2ccccc2)c(=O)[nH]1	–	> 100	–	–	–	> 100	–	> 100	> 100	–	–	–	–	–	–	–	–	> 100	–	–
S=C1SCN(Cc2ccco2)CN1c1ccc(Br)cc1	66.4	24.5	26.9	> 100	94.8	27.5	33	29.2	66.1	–	–	–	–	–	–	–	–	60.7	–	–
COc1ccc(C(=O)Cc2ccc(Br)cc2)cc1OC	> 100	> 100	> 100	54.5	–	> 100	–	> 100	> 100	–	–	–	–	–	–	–	–	–	–	–
COC(=O)[C@H]1CO[C@H]2C/C(C)=C/CC/C(C)=C/CC[C@@]3(C)O[C@@H]3C[C@H]21	24.3	15.5	19.9	39.2	–	17.9	> 50	> 50	> 50	–	–	–	–	–	–	40.6	–	> 50	–	–
CCN(CC)c1ccc2cc(C(=O)Nc3cccc4ccccc34)c(=N)oc2c1	> 100	> 100	> 100	> 100	> 100	> 100	> 100	–	–	–	–	–	–	–	–	> 100	–	> 100	–	–
NCCCN(CCCN)CCN(CCN(CCCN)CCCN)CCN(CCCN)CCCN	> 100	> 100	> 100	22.9	> 100	> 100	–	> 100	–	–	–	–	–	–	–	> 100	–	> 100	–	–
Cc1cc(N2CCCC2)nc(N(CCNc2ccnc3cc(Cl)ccc23)Cc2ccco2)n1	> 100	3.28	> 100	60.7	–	56.7	–	> 100	7.79	3.88	1.78	3.19	10.7	1.92	3.14	23.7	1.88	13.2	4.58	2.75
CC(=O)Nc1ccc(OC2=CCN(C)CC2)cc1	> 100	> 100	> 100	> 100	> 100	> 100	> 100	> 100	–	–	–	–	–	–	–	> 100	–	–	–	–
COc1ccc(C2N(NC(=O)c3ccncc3)C(=O)CS2(=O)=O)cc1F (configuration not stated)	> 100	> 100	> 100	> 100	–	> 100	–	> 100	> 100	–	–	–	–	–	–	–	–	> 100	–	–
